The values that follow come from ChEMBL document CHEMBL5154916, “Multiparameter Optimization of Naphthyridine Derivatives as Selective α5-GABAA Receptor Negative Allosteric Modulators” (J Med Chem, 2022).

Data set [1] is described as follows: Genotoxicity in Salmonella typhimurium up to 5000 ug/ml by Ames test. The format is toxicity. The conditions noted are these: salmonella enterica subsp. enterica serovar typhimurium; dose < 5000 µg/ml. (The Ames test uses bacterial strains that need an amino acid and regain growth without it when mutated back.)
In data set [2] the target is T1, GABA-A receptor; alpha-1/beta-3/gamma-2 (Homo sapiens) (UniProt P14867+P18507+P28472). As to the kind of experiment: Negative allosteric modulation activity at human recombinant alpha1beta3gamma2 GABAA receptor stably expressed in HEK293 cells assessed as modulation at alpha1 subunit at 10 uM by Patch clamp method. The format is cell-based. The conditions noted are these: filed as negative allosteric modulator. (The patch-clamp technique gives a direct electrical read-out from membranes.)

Data set [3] concerns the target T2, GABA-A receptor; alpha-5/beta-3/gamma-2 (Homo sapiens) (UniProt P18507+P28472+P31644). Kind of data set: Negative allosteric modulation activity at human recombinant alpha5beta3gamma2 GABAA receptor stably expressed in HEK293 cells assessed as modulation at alpha5 subunit at 1 uM by Patch clamp method. The format is cell-based. The settings on record: filed as negative allosteric modulator.

Data set [4] is described as follows: Passive permeability in human Caco-2 cells assessed as permeability damage ratio at 10 uM by HPLC-UV analysis. It counts as ADME, cell-based. The conditions noted are these: caco-2, 10 µM. (In general: Caco-2 monolayers are a common model of the intestinal barrier.)
For data set [5], the species on record is Homo sapiens. As to the kind of experiment: Selectivity ratio of Ki for human alpha1GABAA receptor to Ki for alpha2 GABAA receptor.
The nature of data set [6]: Metabolic stability in dog hepatocyte assessed as intrinsic clearance measured per 10^6 cells. The format is ADME, cell-based, Canis lupus familiaris. The conditions noted are these: hepatocytes, read-out: CLH.
Data set [7] is described as follows: Cardiovascular toxicity in po dosed guinea pig assessed as NOAEL. It counts as organism-based, Cavia porcellus. The settings on record: in vivo.
In data set [8] the test system is Rattus norvegicus. As to the kind of experiment: Pro-cognitive activity in neonatal PCP-impaired social recognition Wistar rat model assessed as time spent in recognition of new juveniles at 3 mg/kg, po administered 30 min before acquisition by social recognition test. The format is functional, organism-based.
The target in data set [9] is T3, Cytochrome P450 2C8 (Homo sapiens, UniProt P10632).
T3 sequence (P10632 whole entry): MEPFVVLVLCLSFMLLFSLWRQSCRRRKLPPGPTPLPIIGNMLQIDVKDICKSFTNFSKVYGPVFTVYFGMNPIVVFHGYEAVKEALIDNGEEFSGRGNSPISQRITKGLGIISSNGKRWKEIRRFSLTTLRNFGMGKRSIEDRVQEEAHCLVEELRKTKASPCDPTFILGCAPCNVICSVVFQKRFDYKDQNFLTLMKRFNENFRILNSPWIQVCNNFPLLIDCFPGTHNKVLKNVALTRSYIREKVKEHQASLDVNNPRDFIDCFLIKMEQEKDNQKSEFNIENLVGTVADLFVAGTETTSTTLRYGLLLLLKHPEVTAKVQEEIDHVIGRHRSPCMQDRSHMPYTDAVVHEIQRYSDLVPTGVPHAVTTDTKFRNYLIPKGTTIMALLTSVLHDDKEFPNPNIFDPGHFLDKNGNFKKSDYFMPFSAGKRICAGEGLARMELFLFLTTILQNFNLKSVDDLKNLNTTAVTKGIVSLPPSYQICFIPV
As to the kind of experiment: Inhibition of CYP2C8 (unknown origin). The format is ADME.

In data set [10] the target is T1, GABA-A receptor; alpha-1/beta-3/gamma-2 (Homo sapiens). As to the kind of experiment: Negative allosteric modulation activity at human recombinant alpha1beta3gamma2 GABAA receptor stably expressed in HEK293 cells assessed as modulation at alpha5 subunit by Patch clamp method. It counts as cell-based. The conditions noted are these: filed as negative allosteric modulator.

The nature of data set [11]: […] in po dosed PTZ-induced seizure mouse model assessed as NOAEL by seizure test. It counts as organism-based. The settings on record: in vivo.
Data set [12] in a line: […] in po dosed Wistar rat assessed as convulsive activity by assessing NOAEL by electroconvulsive test. It counts as organism-based. The conditions noted are these: in vivo.
Data set [13] can be described thus: Metabolic stability in human liver microsomes assessed as intrinsic clearance at 2.5 uM. The conditions noted are these: read-out: CLH. The format is ADME, Microsome.
Data set [14] addresses T2, GABA-A receptor; alpha-5/beta-3/gamma-2 (Homo sapiens). Kind of data set: Negative allosteric modulation activity at human recombinant alpha5beta3gamma2 GABAA receptor stably expressed in HEK293 cells assessed as modulation at alpha5 subunit at 10 uM by Patch clamp method. The format is cell-based. The settings on record: filed as negative allosteric modulator.
Data set [15] can be described thus: Cardiovascular toxicity in po dosed dog assessed as NOAEL. The format is organism-based, Canis lupus familiaris. The settings on record: in vivo.
The target of data set [16] is T4, Cytochrome P450 2B6 (Homo sapiens, UniProt P20813).
T4 sequence (P20813 whole entry): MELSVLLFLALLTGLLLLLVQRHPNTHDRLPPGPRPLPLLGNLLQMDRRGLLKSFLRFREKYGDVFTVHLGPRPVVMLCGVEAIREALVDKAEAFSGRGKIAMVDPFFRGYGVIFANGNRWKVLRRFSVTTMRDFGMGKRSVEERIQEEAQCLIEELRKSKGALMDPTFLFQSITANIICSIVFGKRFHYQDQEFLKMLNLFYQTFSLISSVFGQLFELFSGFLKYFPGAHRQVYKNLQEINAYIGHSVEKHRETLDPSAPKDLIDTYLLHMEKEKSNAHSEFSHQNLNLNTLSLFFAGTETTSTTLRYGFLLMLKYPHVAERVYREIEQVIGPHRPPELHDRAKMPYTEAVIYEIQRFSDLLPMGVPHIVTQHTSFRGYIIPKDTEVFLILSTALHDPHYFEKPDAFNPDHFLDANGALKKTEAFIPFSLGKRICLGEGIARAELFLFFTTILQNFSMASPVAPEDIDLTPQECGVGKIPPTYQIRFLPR
As to the kind of experiment: Inhibition of CYP2B6 (unknown origin). The format is ADME.

The target in data set [17] is Voltage-gated inwardly rectifying potassium channel KCNH2 (Homo sapiens, UniProt Q12809). As to the kind of experiment: Inhibition of hERG expressed in CHO cells stably at -80 mV holding potential by automated patch clamp method. The format is toxicity, cell-based.
Voltage-gated inwardly rectifying potassium channel KCNH2, sequence (Q12809 whole entry): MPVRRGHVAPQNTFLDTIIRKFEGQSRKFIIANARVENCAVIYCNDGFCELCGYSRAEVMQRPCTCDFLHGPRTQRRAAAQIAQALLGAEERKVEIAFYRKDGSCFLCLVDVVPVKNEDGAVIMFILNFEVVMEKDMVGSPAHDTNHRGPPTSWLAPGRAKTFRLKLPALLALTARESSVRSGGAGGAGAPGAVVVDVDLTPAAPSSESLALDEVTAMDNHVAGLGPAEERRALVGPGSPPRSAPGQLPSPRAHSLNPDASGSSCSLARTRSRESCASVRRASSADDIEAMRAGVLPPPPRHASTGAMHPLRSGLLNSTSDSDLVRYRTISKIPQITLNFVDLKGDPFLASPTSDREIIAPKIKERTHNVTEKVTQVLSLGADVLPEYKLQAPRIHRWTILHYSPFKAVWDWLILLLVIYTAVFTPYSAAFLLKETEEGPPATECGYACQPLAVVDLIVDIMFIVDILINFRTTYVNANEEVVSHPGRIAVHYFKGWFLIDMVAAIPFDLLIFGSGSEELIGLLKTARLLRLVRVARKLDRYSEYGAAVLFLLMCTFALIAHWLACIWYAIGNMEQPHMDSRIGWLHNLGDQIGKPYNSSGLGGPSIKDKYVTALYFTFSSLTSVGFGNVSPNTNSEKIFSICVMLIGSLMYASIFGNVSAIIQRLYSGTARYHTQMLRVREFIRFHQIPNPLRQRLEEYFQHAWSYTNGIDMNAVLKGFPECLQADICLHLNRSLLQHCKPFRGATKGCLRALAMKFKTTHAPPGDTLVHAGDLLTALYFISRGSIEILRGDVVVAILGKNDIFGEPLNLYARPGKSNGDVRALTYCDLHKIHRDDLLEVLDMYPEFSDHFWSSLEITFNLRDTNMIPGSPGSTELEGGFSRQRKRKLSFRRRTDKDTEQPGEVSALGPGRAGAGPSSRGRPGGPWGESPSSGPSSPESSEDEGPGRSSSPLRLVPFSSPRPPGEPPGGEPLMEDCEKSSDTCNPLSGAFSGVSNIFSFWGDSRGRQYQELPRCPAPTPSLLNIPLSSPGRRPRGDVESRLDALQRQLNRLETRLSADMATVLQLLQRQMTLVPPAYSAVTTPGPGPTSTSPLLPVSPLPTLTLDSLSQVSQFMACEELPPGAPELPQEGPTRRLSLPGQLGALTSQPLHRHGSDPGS

Activity calls are given as the source filed them. The calls are words filed in the database; no cut-off is given here.

For orientation: NOAEL means the highest tested level that showed no adverse finding. Broadly, the IC50 is the midpoint of a concentration-inhibition curve. A lower IC50 goes with higher potency. In the case of `Cc1onc(-c2ccc(F)cc2)c1COc1ccc2c(n1)CCN(C(=O)CS(C)(=O)=O)C2`, the Activity entry was “Non-Toxic” in [1]; -2% in data set [2]; -24% in data set [3]; -41% in [10]; -39% in data set [14]. Besides, in [4], the Ratio was 29. Also, in [5], the Selectivity ratio was over 40. For the same compound, the hepatocyte CLint in data set [6] is 2 µL/min/1e6 cells. Moreover, the no observed adverse effect level (NOAEL) in [7] was at least 100 mg/kg; in data set [11], at least 30 mg/kg; in data set [12], at least 1000 mg/kg; in data set [15], at least 70 mg/kg. Also, in data set [8], the result was Active. Besides, the 50% inhibitory concentration (IC50) is over 50 µM in data set [9], 20.8 µM in data set [16] and 6.2 µM in data set [17]. The microsomal CLint at 2.5 µM in data set [13] was found to be 6 µL/min/mg.
